Legend:
Assay type in all cases: functional, cell-based
L1210 = assay: Cytotoxicity against L1210 tumor cell lines in mice; details: Mus musculus
DLD-1 = assay: Cytotoxicity against DLD-1 human tumor cell lines
[1] = tested on: KATO III stomach cancer cell line; assay: Cytotoxicity against KATO-III human tumor cell lines
Caov-3 cell line = assay: Cytotoxicity against CAOV-3 human tumor cell lines
A 172 = assay: Cytotoxicity against A-172 human tumor cell lines

Structure (SMILES): CCC1(O)C(=O)OCc2c1cc1n(c2=O)Cc2c-1nc1ccccc1c2CCNCCO (stereo not given)
- IC50 (L1210): 13000 nM
- IC50 (DLD-1): 8790 nM
- IC50 [1]: 47800 nM
- IC50 (Caov-3 cell line): 4630 nM
- IC50 (A 172): 23300 nM

Structure (SMILES): CCC1(O)C(=O)OCc2c1cc1n(c2=O)Cc2c-1nc1ccccc1c2CCN(C(=O)OCc1ccccc1)C(C)C (stereo not given)
- IC50 (L1210): 1290 nM
- IC50 (DLD-1): 1830 nM
- IC50 [1]: 1850 nM
- IC50 (Caov-3 cell line): 41 nM
- IC50 (A 172): 950 nM

Structure (SMILES): CC[C@@]1(O)C(=O)OCc2c1cc1n(c2=O)Cc2cc3ccccc3nc2-1 [CAMPTOTHECIN]
- IC50 (L1210): 180 nM
- IC50 (DLD-1): 210 nM
- IC50 [1]: 1170 nM
- IC50 (Caov-3 cell line): 30 nM
- IC50 (A 172): 140 nM

Structure (SMILES): CCN(CCc1c2c(nc3cc4c(cc13)OCO4)-c1cc3c(c(=O)n1C2)COC(=O)C3(O)CC)C(=O)OCc1ccccc1 (stereo not given)
- IC50 (L1210): 3520 nM
- IC50 (DLD-1): 24200 nM
- IC50 [1]: 23100 nM
- IC50 (Caov-3 cell line): 1740 nM
- IC50 (A 172): 2830 nM

Structure (SMILES): CCC1(O)C(=O)OCc2c1cc1n(c2=O)Cc2c-1nc1ccccc1c2CCN(CCO)C(=O)OCc1ccccc1 (stereo not given)
- IC50 (L1210): 2900 nM
- IC50 (DLD-1): 9720 nM
- IC50 [1]: 13800 nM
- IC50 (Caov-3 cell line): 1140 nM
- IC50 (A 172): 1920 nM

Structure (SMILES): CCC1(O)C(=O)OCc2c1cc1n(c2=O)Cc2c-1nc1ccccc1c2CCN1CCOCC1 (stereo not given)
- IC50 (L1210): > 100000 nM
- IC50 (DLD-1): > 100000 nM
- IC50 [1]: 82000 nM
- IC50 (Caov-3 cell line): 42200 nM
- IC50 (A 172): 81800 nM

Structure (SMILES): CCC1(O)C(=O)OCc2c1cc1n(c2=O)Cc2c-1nc1ccccc1c2CCNC(C)C (stereo not given)
- IC50 (L1210): 130 nM
- IC50 (DLD-1): 110 nM
- IC50 [1]: 40 nM
- IC50 (Caov-3 cell line): 41 nM
- IC50 (A 172): 110 nM

Structure (SMILES): CCC1(O)C(=O)OCc2c1cc1n(c2=O)Cc2c-1nc1ccccc1c2CCNCc1ccccc1 (stereo not given)
- IC50 (L1210): 4030 nM
- IC50 (DLD-1): 310 nM
- IC50 [1]: 850 nM
- IC50 (Caov-3 cell line): 170 nM
- IC50 (A 172): 280 nM

Structure (SMILES): CCC1(O)C(=O)OCc2c1cc1n(c2=O)Cc2c-1nc1ccccc1c2CCN(CCOC(C)=O)C(=O)OCc1ccccc1 (stereo not given)
- IC50 (L1210): 9080 nM
- IC50 (DLD-1): 15800 nM
- IC50 [1]: 16600 nM
- IC50 (Caov-3 cell line): 4480 nM
- IC50 (A 172): 18600 nM

Structure (SMILES): CCC1(O)C(=O)OCc2c1cc1n(c2=O)Cc2c-1nc1ccccc1c2CCNCCOC(C)=O (stereo not given)
- IC50 (L1210): 4360 nM
- IC50 (DLD-1): 3480 nM
- IC50 [1]: 820 nM
- IC50 (Caov-3 cell line): 880 nM
- IC50 (A 172): 740 nM

Structure (SMILES): CCC1(O)C(=O)OCc2c1cc1n(c2=O)Cc2c-1nc1ccccc1c2CCN(Cc1ccccc1)C(=O)OCc1ccccc1 (stereo not given)
- IC50 (L1210): 700 nM
- IC50 (DLD-1): 1060 nM
- IC50 [1]: 14000 nM
- IC50 (Caov-3 cell line): 1970 nM
- IC50 (A 172): 1180 nM

Structure (SMILES): CCCN(CCc1c2c(nc3ccccc13)-c1cc3c(c(=O)n1C2)COC(=O)C3(O)CC)C(=O)OCc1ccccc1 (stereo not given)
- IC50 (L1210): 1090 nM
- IC50 (DLD-1): 550 nM
- IC50 [1]: 510 nM
- IC50 (Caov-3 cell line): 140 nM
- IC50 (A 172): 2330 nM

Structure (SMILES): CCC1(O)C(=O)OCc2c1cc1n(c2=O)Cc2c-1nc1ccccc1c2CCN1CCCC1 (stereo not given)
- IC50 (L1210): > 100000 nM
- IC50 (DLD-1): > 100000 nM
- IC50 [1]: > 100000 nM
- IC50 (Caov-3 cell line): > 100000 nM
- IC50 (A 172): > 100000 nM

Structure (SMILES): CCNCCc1c2c(nc3ccccc13)-c1cc3c(c(=O)n1C2)COC(=O)C3(O)CC (stereo not given)
- IC50 (L1210): 640 nM
- IC50 (DLD-1): 440 nM
- IC50 [1]: 360 nM
- IC50 (Caov-3 cell line): 200 nM
- IC50 (A 172): 85 nM

Structure (SMILES): CCC1(O)C(=O)OCc2c1cc1n(c2=O)Cc2c-1nc1ccccc1c2CCN1CCCCC1 (stereo not given)
- IC50 (L1210): > 100000 nM
- IC50 (DLD-1): > 100000 nM
- IC50 [1]: > 100000 nM
- IC50 (Caov-3 cell line): > 100000 nM
- IC50 (A 172): 51100 nM

Source: ChEMBL document CHEMBL1129725, “Synthesis and antitumor activity of 7-substituted 20(RS)-camptothecin analogues” (Bioorg Med Chem Lett, 1996)
